From patent US9796711B2, “Substituted pyrazolo[3,4-b]pyridin-6-carboxylic acids and method of use” (AbbVie S.àr.l., priority 2015, dated 2017)
Where two headings read alike, the source gives them in different places.

Target: T1, ΔF508-CFTR (Homo sapiens, UniProt P13569, DEL508-508)
T1 construct: host or cells: CFBE41o-, doxycycline-inducible
Experiment: CFTR cell surface levels using HRP-tagged ΔF508-CFTR expressing CFBE cells, intrinsic corrector capacity
Assay type: cell-based
Conditions: 20 hours at 33° C.; for EC50: read-out: EC50
Text: Measuring CFTR Cell Surface Levels Using HRP-Tagged AF508-CFTR Expressing CFBE Cells
The HRP-tagged AF508-CFTR cell assay measures the expression of CFTR-ΔF508 at the plasma membrane. CFTR-ΔF508 has a folding defect leading to absence of protein at the plasma membrane. This assay is used to evaluate the capacity of compounds to increase the expression of CFTR-ΔF508 at the plasma membrane. The CFTR-ΔF508 is tagged with HRP (horse radish peroxidase enzyme) within the ECL4 (Extracellular loop 4) of CFTR (Phuan, P.-W. et al. Synergy-based small-molecule screen using a human lung epithelial cell line yields AF508-CFTR correctors that augment VX-809 maximal efficacy. Mol. Pharmacol. 86, 42-51 (2014)). When HRP-tagged AF508-CFTR is present at the plasma membrane, the HRP enzyme activity can be measured. The amount of CFTR-ΔF508 that can be rescued to the plasma membrane is correlated with the amount of functional enzyme that can be measured.
There are several ways to measure the capacity of compounds to rescue CFTR-ΔF508 to the plasma membrane; either compounds are evaluated on their own and the impact on plasma membrane levels is measured or compounds are evaluated in combination with a co-corrector, i.e. a compound that rescues CFTR-ΔF508 to the plasma membrane but rescue can be enhanced by addition of compounds due to a complementary mode of action.
Activity of Compounds for their Intrinsic Corrector Capacity:
For this purpose doxycycline-inducible AF508-CFTR-HRP expressing CFBE4lo-cells (obtained from Gergely Lukacs, McGill University) were maintained in MEM (Gibco; 31095) supplemented with 10% fetal bovine serum (Hyclone; SV30160.03) under puromycin (3 μg/mL) and G418 selection (0.2 mg/mL). For compound testing, cells were seeded at 4000 cells/well in white 384-well plates (Greiner; 781080) in 50 μL medium containing 0.5 μg/mL doxycycline and incubated for 68 hours at 37° C., 5% CO2. On day four, 10 μL test compounds diluted in PBS were added to the plates at a final DMSO concentration of 0.1%. All compound plates contained negative controls (DMSO) and positive controls (3 μM corrector, 3-[(2R,4R)-4-({[1-(2,2-difluoro-1,3-benzodioxol-5-yl)cyclopropyl]carbonyl}amino)-7-methoxy-3,4-dihydro-2H-chromen-2-yl]benzoic acid). Cell plates were incubated at 33° C., 5% CO2 for 20 hours. On day five, the cells were washed five times with phosphate-buffered saline, and HRP activity was assayed by the addition of 50 μL/well of HRP substrate (SuperSignal™ West Pico Chemiluminescent Substrate, Thermo Scientific; 34080). After incubation for 15 minutes in the dark, chemiluminescence was measured using a plate reader (EnVision®, Perkin Elmer). Raw data were normalized to percentage activity values using the equation: 100×(Sample−Negative control)/(Positive control−Negative Control).

[1] = HRP-tagged ΔF508-CFTR CFBE41o- cells, compounds alone (intrinsic corrector capacity), positive control 3 μM corrector
[2] = HRP-tagged ΔF508-CFTR CFBE41o- cells, compounds alone (intrinsic corrector capacity)
[3] = HRP-tagged ΔF508-CFTR CFBE cells, compound alone (intrinsic corrector capacity)

T1 sequence (P13569 with tags, fused parts or gaps DEL508-508): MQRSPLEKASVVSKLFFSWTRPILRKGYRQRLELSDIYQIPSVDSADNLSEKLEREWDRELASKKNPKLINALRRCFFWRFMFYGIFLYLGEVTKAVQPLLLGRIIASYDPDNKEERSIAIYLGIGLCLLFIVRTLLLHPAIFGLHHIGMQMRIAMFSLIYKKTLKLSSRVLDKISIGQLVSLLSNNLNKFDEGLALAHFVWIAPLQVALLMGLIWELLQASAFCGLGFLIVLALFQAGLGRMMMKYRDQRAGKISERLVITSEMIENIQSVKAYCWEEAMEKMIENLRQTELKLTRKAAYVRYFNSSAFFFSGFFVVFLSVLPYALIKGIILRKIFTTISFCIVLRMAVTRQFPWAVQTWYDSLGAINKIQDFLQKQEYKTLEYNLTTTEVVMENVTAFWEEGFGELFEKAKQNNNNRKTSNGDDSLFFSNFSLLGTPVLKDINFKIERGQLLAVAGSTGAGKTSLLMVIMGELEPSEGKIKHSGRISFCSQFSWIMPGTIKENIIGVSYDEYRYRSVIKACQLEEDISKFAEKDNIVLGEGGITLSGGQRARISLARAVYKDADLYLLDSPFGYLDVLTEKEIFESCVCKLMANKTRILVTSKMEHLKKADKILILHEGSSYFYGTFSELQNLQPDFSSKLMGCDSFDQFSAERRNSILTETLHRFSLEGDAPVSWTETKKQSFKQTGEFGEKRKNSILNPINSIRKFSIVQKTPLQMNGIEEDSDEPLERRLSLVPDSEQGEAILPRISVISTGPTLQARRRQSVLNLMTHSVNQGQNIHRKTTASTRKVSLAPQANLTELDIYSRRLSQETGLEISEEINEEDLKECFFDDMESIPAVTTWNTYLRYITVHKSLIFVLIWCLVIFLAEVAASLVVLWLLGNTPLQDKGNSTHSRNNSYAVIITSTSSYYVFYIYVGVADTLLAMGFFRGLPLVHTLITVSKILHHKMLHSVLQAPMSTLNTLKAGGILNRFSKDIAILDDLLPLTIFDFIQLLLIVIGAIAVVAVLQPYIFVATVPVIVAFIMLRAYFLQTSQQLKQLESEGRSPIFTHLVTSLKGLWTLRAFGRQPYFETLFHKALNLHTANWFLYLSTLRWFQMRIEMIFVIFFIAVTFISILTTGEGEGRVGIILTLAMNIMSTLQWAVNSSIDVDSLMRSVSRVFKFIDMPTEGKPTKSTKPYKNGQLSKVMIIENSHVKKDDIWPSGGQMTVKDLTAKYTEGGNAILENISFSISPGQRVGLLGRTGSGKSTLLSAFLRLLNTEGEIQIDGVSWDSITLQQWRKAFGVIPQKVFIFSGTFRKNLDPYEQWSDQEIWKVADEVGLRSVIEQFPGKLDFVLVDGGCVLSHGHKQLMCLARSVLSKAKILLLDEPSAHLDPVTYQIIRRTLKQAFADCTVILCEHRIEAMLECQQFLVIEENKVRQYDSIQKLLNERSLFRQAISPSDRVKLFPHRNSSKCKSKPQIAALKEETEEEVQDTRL

SMILES | % Activation [1] [%] | EC50 [2] [nM] | % Activation [3] [%] | EC50 [3] [nM]
Cc1nn(-c2cnn(C)c2)c2nc(C(=O)O)cc(-c3ccc(N4CCOCC4)cc3)c12 [compound 46, 3-methyl-1-(1-methyl-1H-pyrazol-4-yl)-4-[4-(morpholin-4-yl)phenyl]-1H-pyrazolo[3,4-b]pyridine-6-carboxylic acid] | 15.23 | > 10000 |  | 
CC(C)c1nn(-c2ccccc2)c2nc(C(=O)O)cc(-c3ccc(N4CCCC4)cc3)c12 [compound 24, 1-phenyl-3-(propan-2-yl)-4-[4-(pyrrolidin-1-yl)phenyl]-1H-pyrazolo[3,4-b]pyridine-6-carboxylic acid] | 134.1 | 1830 |  | 
Cc1nn(-c2cccc(S(C)(=O)=O)c2)c2nc(C(=O)O)cc(-c3ccc(N4CCOCC4)cc3)c12 [compound 38, 1-[3-(methanesulfonyl)phenyl]-3-methyl-4-[4-(morpholin-4-yl)phenyl]-1H-pyrazolo[3,4-b]pyridine-6-carboxylic acid] | 23.86 | > 10000 |  | 
Cc1nn(-c2cc(C(F)(F)F)[nH]n2)c2nc(C(=O)O)cc(-c3ccc(N4CCOCC4)cc3)c12 [compound 7, 3-methyl-4-[4-(morpholin-4-yl)phenyl]-1-[5-(trifluoromethyl)-1H-pyrazol-3-yl]-1H-pyrazolo[3,4-b]pyridine-6-carboxylic acid] | 5.355 | > 10000 |  | 
Cc1nn(-c2ccccc2)c2nc(C(=O)O)cc(-c3ccc(C4=CCN(C)CC4)cc3)c12 [compound 27, 3-methyl-4-[4-(1-methyl-1,2,3,6-tetrahydropyridin-4-yl)phenyl]-1-phenyl-1H-pyrazolo[3,4-b]pyridine-6-carboxylic acid] | 41.145 | 6670 |  | 
Cc1c(C(=O)O)nc2c(c(C)nn2-c2ccccc2)c1-c1ccc(N2CCOCC2)cc1 [compound 42, 3,5-dimethyl-4-[4-(morpholin-4-yl)phenyl]-1-phenyl-1H-pyrazolo[3,4-b]pyridine-6-carboxylic acid] | 74.83 | 3340 |  | 
Cc1nn(-c2ccc(OC(F)(F)F)cc2)c2nc(C(=O)O)cc(-c3ccc(N4CCOCC4)cc3)c12 [compound 31, 3-methyl-4-[4-(morpholin-4-yl)phenyl]-1-[4-(trifluoromethoxy)phenyl]-1H-pyrazolo[3,4-b]pyridine-6-carboxylic acid] | 96.335 | 522 |  | 
Cc1nn(-c2ccccc2)c2nc(C(=O)O)cc(-c3ccc(N4CCN(S(C)(=O)=O)CC4)cc3)c12 [compound 53, 4-{4-[4-(methanesulfonyl)piperazin-1-yl]phenyl}-3-methyl-1-phenyl-1H-pyrazolo[3,4-b]pyridine-6-carboxylic acid] | 72.97 | 3340 |  | 
CNC(=O)c1nn(-c2ccccc2)c2nc(C(=O)O)cc(-c3ccc(N4CCOCC4)cc3)c12 [compound 55, 3-(methylcarbamoyl)-4-[4-(morpholin-4-yl)phenyl]-1-phenyl-1H-pyrazolo[3,4-b]pyridine-6-carboxylic acid] | 0.088 | > 10000 |  | 
COc1ccc(-c2cc(C(=O)O)nc3c2c(C)nn3CCC#N)cc1 [compound 4, 1-(2-cyanoethyl)-4-(4-methoxyphenyl)-3-methyl-1H-pyrazolo[3,4-b]pyridine-6-carboxylic acid] | 3.339 | > 10000 |  | 
CC(C)(CO)c1nn(-c2ccccc2)c2nc(C(=O)O)cc(-c3ccc(N4CCOCC4)cc3)c12 [compound 56, 3-(1-hydroxy-2-methylpropan-2-yl)-4-[4-(morpholin-4-yl)phenyl]-1-phenyl-1H-pyrazolo[3,4-b]pyridine-6-carboxylic acid] | 53.1 | 3340 |  | 
CC(C)COC(=O)N1CCN(c2cc(C(=O)O)nc3c2c(C2CCC2)nn3-c2ccc(F)cc2)CC1 [compound 930, 3-cyclobutyl-1-(4-fluorophenyl)-4-{4-[(2-methylpropoxy)carbonyl]piperazin-1-yl}-1H-pyrazolo[3,4-b]pyridine-6-carboxylic acid] |  |  | 434.3 | 240
COc1cc(F)cc(-n2nc(C)c3c(-c4ccc(N5CCOCC5)cc4)cc(C(=O)O)nc32)c1 [compound 52, 1-(3-fluoro-5-methoxyphenyl)-3-methyl-4-[4-(morpholin-4-yl)phenyl]-1H-pyrazolo[3,4-b]pyridine-6-carboxylic acid] | 87.35 | 2680 |  | 
Cc1nn(-c2ccccc2)c2nc(C(=O)O)cc(-c3ccc(N4CCC(F)C4)cc3)c12 (stereo not shown) [compound 28, 4-[4-(3-fluoropyrrolidin-1-yl)phenyl]-3-methyl-1-phenyl-1H-pyrazolo[3,4-b]pyridine-6-carboxylic acid] | 129.5 | 1180 |  | 
Cc1nn(-c2cccc(OC(F)(F)F)c2)c2nc(C(=O)O)cc(-c3ccc(N4CCOCC4)cc3)c12 [compound 35, 3-methyl-4-[4-(morpholin-4-yl)phenyl]-1-[3-(trifluoromethoxy)phenyl]-1H-pyrazolo[3,4-b]pyridine-6-carboxylic acid] | 110.15 | 737 |  | 
COc1cc(N2CCOCC2)ccc1-c1cc(C(=O)O)nc2c1c(C)nn2-c1ccccc1 [compound 33, 4-[2-methoxy-4-(morpholin-4-yl)phenyl]-3-methyl-1-phenyl-1H-pyrazolo[3,4-b]pyridine-6-carboxylic acid] | 90.265 | 1530 |  | 
Cc1nn(-c2cc[nH]c(=O)c2)c2nc(C(=O)O)cc(-c3ccc(N4CCOCC4)cc3)c12 [compound 58, 3-methyl-4-[4-(morpholin-4-yl)phenyl]-1-(2-oxo-1,2-dihydropyridin-4-yl)-1H-pyrazolo[3,4-b]pyridine-6-carboxylic acid] | 4.754 | > 10000 |  | 
C=C(C)c1nn(-c2ccccc2)c2nc(C(=O)O)cc(-c3ccc(N4CCOCC4)cc3)c12 [compound 48, 4-[4-(morpholin-4-yl)phenyl]-1-phenyl-3-(prop-1-en-2-yl)-1H-pyrazolo[3,4-b]pyridine-6-carboxylic acid] | 163.7 | 989 |  | 
Cc1nn(-c2ccc(F)c(F)c2)c2nc(C(=O)O)cc(-c3ccc(N4CCOCC4)cc3)c12 [compound 37, 1-(3,4-difluorophenyl)-3-methyl-4-[4-(morpholin-4-yl)phenyl]-1H-pyrazolo[3,4-b]pyridine-6-carboxylic acid] | 112.9 | 1110 |  | 
Cc1nn(-c2ccccc2)c2nc(C(=O)O)cc(-c3ccc(N4CCS(=O)(=O)CC4)cc3)c12 [compound 14, 4-[4-(1,1-dioxo-1λ^6,4-thiazinan-4-yl)phenyl]-3-methyl-1-phenyl-1H-pyrazolo[3,4-b]pyridine-6-carboxylic acid] | 58.56 | 3340 |  | 
CC(=O)N1CCN(c2ccc(-c3cc(C(=O)O)nc4c3c(C)nn4-c3ccccc3)cc2)CC1 [compound 29, 4-[4-(4-acetylpiperazin-1-yl)phenyl]-3-methyl-1-phenyl-1H-pyrazolo[3,4-b]pyridine-6-carboxylic acid] | 146.1 | 3110 |  | 
Cc1nn(-c2cccc(C(N)=O)c2)c2nc(C(=O)O)cc(-c3ccc(N4CCOCC4)cc3)c12 [compound 59, 1-(3-carbamoylphenyl)-3-methyl-4-[4-(morpholin-4-yl)phenyl]-1H-pyrazolo[3,4-b]pyridine-6-carboxylic acid] | 13.69 | > 10000 |  | 
Cc1nn(-c2cc(Cl)cc(Cl)c2)c2nc(C(=O)O)cc(-c3ccc(N4CCOCC4)cc3)c12 [compound 44, 1-(3,5-dichlorophenyl)-3-methyl-4-[4-(morpholin-4-yl)phenyl]-1H-pyrazolo[3,4-b]pyridine-6-carboxylic acid] | 117.2 | 2200 |  | 
